Source: ChEMBL document CHEMBL2375251, “Anticancer activity of novel hybrid molecules containing 5-benzylidene thiazolidine-2,4-dione” (Eur J Med Chem, 2013)
Calls of active or inactive are those of the source. The calls are words filed in the database; no cut-off is given here.

Tests used:
HL-60 [1] = experiment: Induction of apoptosis in human HL60 cells assessed as procaspase-9 activation at 1 uM after 6 hrs by Western blot analysis; assay type: functional, cell-based
U-937 [2] = experiment: Induction of apoptosis in human U937 cells assessed as caspase9-mediated LEHD-pNA cleavage at 1 uM after 6 hrs by colorimetric assay; assay type: functional, cell-based
MOLT-3 [3] = experiment: Induction of apoptosis in human MOLT3 cells assessed as caspase 3/7-mediated DEVD-pNA cleavage at 1 uM after 6 hrs by colorimetric assay relative to control; assay type: functional
MOLT-3 [4] = experiment: Cytotoxicity against human MOLT3 cells after 4 hrs by MTT assay; assay type: functional, cell-based
U-937 [5] = experiment: Induction of apoptosis in human U937 cells assessed as procaspase-7 activation at 1 uM after 6 hrs by Western blot analysis; assay type: functional, cell-based
U-937 [6] = experiment: Induction of apoptosis in human U937 cells assessed as chromatin hydrolysis at 1 uM after 6 hrs by agarose gel electrophoresis; assay type: functional, cell-based
U-937 [7] = experiment: Induction of apoptosis in human U937 cells assessed as caspase 8-mediated IETD-pNA cleavage at 1 uM after 6 hrs by colorimetric assay; assay type: functional, cell-based
MOLT-3 [8] = experiment: Induction of apoptosis in human MOLT3 cells assessed as caspase-3-mediated PARP hydrolysis at 1 uM after 6 hrs by Western blot analysis; assay type: functional, cell-based
U-937 [9] = experiment: Induction of apoptosis in human U937 cells assessed as caspase 3/7-mediated DEVD-pNA cleavage at 1 uM after 6 hrs by colorimetric assay; assay type: functional, cell-based
U-937 [10] = experiment: Induction of apoptosis in human U937 cells assessed as caspase 3/7-mediated DEVD-pNA cleavage at 1 uM after 6 hrs by colorimetric assay relative to control; assay type: functional
U-937 [11] = experiment: Induction of apoptosis in human U937 cells assessed as procaspase-8 activation at 1 uM after 6 hrs by Western blot analysis; assay type: functional, cell-based
U-937 [12] = experiment: Induction of apoptosis in human U937 cells assessed as procaspase-6 activation at 1 uM after 6 hrs by Western blot analysis; assay type: functional, cell-based
MOLT-3 [13] = experiment: Induction of apoptosis in human MOLT3 cells assessed as procaspase-8 activation at 1 uM after 6 hrs by Western blot analysis; assay type: functional, cell-based
HL-60 [14] = experiment: Induction of apoptosis in human HL60 cells assessed as chromatin hydrolysis at 1 uM after 6 hrs by agarose gel electrophoresis; assay type: functional, cell-based
HL-60 [15] = experiment: Cytotoxicity against human HL60 cells after 4 hrs by MTT assay; assay type: functional, cell-based
U-937 [16] = experiment: Induction of apoptosis in human U937 cells assessed as caspase-3-mediated PARP hydrolysis at 1 uM after 6 hrs by Western blot analysis; assay type: functional, cell-based
MOLT-3 [17] = experiment: Induction of apoptosis in human MOLT3 cells assessed as caspase9-mediated LEHD-pNA cleavage at 1 uM after 6 hrs by colorimetric assay; assay type: functional, cell-based
MOLT-3 [18] = experiment: Induction of apoptosis in human MOLT3 cells assessed as caspase 3/7-mediated DEVD-pNA cleavage at 1 uM after 6 hrs by colorimetric assay; assay type: functional, cell-based
HL-60 [19] = experiment: Induction of apoptosis in human HL60 cells assessed as procaspase-3 activation at 1 uM after 6 hrs by Western blot analysis; assay type: functional, cell-based
MOLT-3 [20] = experiment: Induction of apoptosis in human MOLT3 cells assessed as cytochrome c release at 1 uM after 6 hrs by Western blot analysis; assay type: functional, cell-based
U-937 [21] = experiment: Cytotoxicity against human U937 cells after 4 hrs by MTT assay; assay type: functional, cell-based
MOLT-3 [22] = experiment: Induction of apoptosis in human MOLT3 cells assessed as caspase 8-mediated IETD-pNA cleavage at 1 uM after 6 hrs by colorimetric assay; assay type: functional, cell-based
MOLT-3 [23] = experiment: Induction of apoptosis in human MOLT3 cells assessed as procaspase-3 activation at 1 uM after 6 hrs by Western blot analysis; assay type: functional, cell-based
HL-60 [24] = experiment: Induction of apoptosis in human HL60 cells assessed as chromatin condensation at 1 uM after 6 hrs by Hoechst 33258 staining based fluorescence microscopy; assay type: functional, cell-based
MOLT-3 [25] = experiment: Induction of apoptosis in human MOLT3 cells assessed as procaspase-9 activation at 1 uM after 6 hrs by Western blot analysis; assay type: functional, cell-based
U-937 [26] = experiment: Induction of apoptosis in human U937 cells assessed as appearance of apoptotic bodies at 1 uM after 6 hrs by Hoechst 33258 staining based fluorescence microscopy; assay type: functional, cell-based
L1210 = experiment: Cytotoxicity against mouse L1210 cells after 2 days by Coulter counter analysis; assay type: functional, cell-based; conditions: L1210, 48 h
U-937 [27] = experiment: Induction of apoptosis in human U937 cells assessed as cytochrome c release at 1 uM after 6 hrs by Western blot analysis; assay type: functional, cell-based
HeLa = experiment: Cytotoxicity against human HeLa cells after 4 days by Coulter counter analysis; assay type: functional, cell-based; conditions: 96 h
HL-60 [28] = experiment: Induction of apoptosis in human HL60 cells assessed as caspase9-mediated LEHD-pNA cleavage at 1 uM after 6 hrs by colorimetric assay; assay type: functional, cell-based
HL-60 [29] = experiment: Induction of apoptosis in human HL60 cells assessed as appearance of apoptotic bodies at 1 uM after 6 hrs by Hoechst 33258 staining based fluorescence microscopy; assay type: functional, cell-based
U-937 [30] = experiment: Induction of apoptosis in human U937 cells assessed as procaspase-9 activation at 1 uM after 6 hrs by Western blot analysis; assay type: functional, cell-based
MOLT-3 [31] = experiment: Induction of apoptosis in human MOLT3 cells assessed as procaspase-7 activation at 1 uM after 6 hrs by Western blot analysis; assay type: functional, cell-based
HL-60 [32] = experiment: Induction of apoptosis in human HL60 cells assessed as cytochrome c release at 1 uM after 6 hrs by Western blot analysis; assay type: functional, cell-based
HL-60 [33] = experiment: Induction of apoptosis in human HL60 cells assessed as caspase 8-mediated IETD-pNA cleavage at 1 uM after 6 hrs by colorimetric assay; assay type: functional, cell-based
HL-60 [34] = experiment: Induction of apoptosis in human HL60 cells assessed as procaspase-8 activation at 1 uM after 6 hrs by Western blot analysis; assay type: functional, cell-based
HL-60 [35] = experiment: Induction of apoptosis in human HL60 cells assessed as caspase-3-mediated PARP hydrolysis at 1 uM after 6 hrs by Western blot analysis; assay type: functional, cell-based
HL-60 [36] = experiment: Induction of apoptosis in human HL60 cells assessed as hypodiploid DNA content at 3 uM after 6 hrs by propidium iodide staining-based flow cytometry relative to control; assay type: functional
U-937 [37] = experiment: Induction of apoptosis in human U937 cells assessed as hypodiploid DNA content at 3 uM after 6 hrs by propidium iodide staining-based flow cytometry relative to control; assay type: functional
U-937 [38] = experiment: Induction of apoptosis in human U937 cells assessed as chromatin condensation at 1 uM after 6 hrs by Hoechst 33258 staining based fluorescence microscopy; assay type: functional, cell-based
CCRF-CEM = experiment: Cytotoxicity against human CEM cells after 3 days by Coulter counter analysis; assay type: functional, cell-based; conditions: 72 h
HL-60 [39] = experiment: Induction of apoptosis in human HL60 cells assessed as procaspase-6 activation at 1 uM after 6 hrs by Western blot analysis; assay type: functional, cell-based
HL-60 [40] = experiment: Induction of apoptosis in human HL60 cells assessed as caspase 3/7-mediated DEVD-pNA cleavage at 1 uM after 6 hrs by colorimetric assay; assay type: functional, cell-based
HL-60 [41] = experiment: Induction of apoptosis in human HL60 cells assessed as caspase 3/7-mediated DEVD-pNA cleavage at 1 uM after 6 hrs by colorimetric assay relative to control; assay type: functional
FM3A = experiment: Cytotoxicity against mouse FM3A cells after 2 days by Coulter counter analysis; assay type: functional, cell-based; conditions: 48 h
MOLT-3 [42] = experiment: Induction of apoptosis in human MOLT3 cells assessed as procaspase-6 activation at 1 uM after 6 hrs by Western blot analysis; assay type: functional, cell-based
U-937 [43] = experiment: Induction of apoptosis in human U937 cells assessed as procaspase-3 activation at 1 uM after 6 hrs by Western blot analysis; assay type: functional, cell-based
MOLT-3 [44] = experiment: Induction of apoptosis in human MOLT3 cells assessed as chromatin hydrolysis at 1 uM after 6 hrs by agarose gel electrophoresis; assay type: functional, cell-based
HL-60 [45] = experiment: Induction of apoptosis in human HL60 cells assessed as procaspase-7 activation at 1 uM after 6 hrs by Western blot analysis; assay type: functional, cell-based

C=C(Br)C(=O)Nc1cccc(/C=C2\SC(=O)N(Cc3ccc(C(F)(F)F)cc3)C2=O)c1
Activity (HL-60 [1]): Active | Activity (U-937 [2]): Active | fold change (FC) (MOLT-3 [3]): >2 | Activity (MOLT-3 [4]): Dose-dependent effect | IC50 (MOLT-3 [4]; MOLT-3, 4 h): 710 nM | Activity (U-937 [5]): Active | Activity (U-937 [6]): Active | Activity (U-937 [7]): Active | Activity (MOLT-3 [8]): Active | Activity (U-937 [9]): Active | fold change (FC) (U-937 [10]): >10 | Activity (U-937 [11]): Active | Activity (U-937 [12]): Active | Activity (MOLT-3 [13]): Active | Activity (HL-60 [14]): Active | Activity (HL-60 [15]): Dose-dependent effect | IC50 (HL-60 [15]; HL-60, 4 h): 450 nM | Activity (U-937 [16]): Active | Activity (MOLT-3 [17]): Active | Activity (MOLT-3 [18]): Active | Activity (HL-60 [19]): Active | Activity (MOLT-3 [20]): Active | Activity (U-937 [21]): Dose-dependent effect | IC50 (U-937 [21]; U-937, 4 h): 500 nM | Activity (MOLT-3 [22]): Active | Activity (MOLT-3 [23]): Active | Activity (HL-60 [24]): Active | Activity (MOLT-3 [25]): Active | Activity (U-937 [26]): Active | IC50 (L1210): 720 nM | Activity (U-937 [27]): Active | IC50 (HeLa): 820 nM | Activity (HL-60 [28]): Active | Activity (HL-60 [29]): Active | Activity (U-937 [30]): Active | Activity (MOLT-3 [31]): Active | Activity (HL-60 [32]): Active | Activity (HL-60 [33]): Active | Activity (HL-60 [34]): Active | Activity (HL-60 [35]): Active | fold change (FC) (HL-60 [36]): 23 | fold change (FC) (U-937 [37]): 16 | Activity (U-937 [38]): Active | IC50 (CCRF-CEM): 920 nM | Activity (HL-60 [39]): Active | Activity (HL-60 [40]): Active | fold change (FC) (HL-60 [41]): >5 | IC50 (FM3A): 870 nM | Activity (MOLT-3 [42]): Active | Activity (U-937 [43]): Active | Activity (MOLT-3 [44]): inactive | Activity (HL-60 [45]): Active
